# In paper PMC4229301, “A Polymeric Prodrug of 5-Fluorouracil-1-Acetic Acid Using a Multi-Hydroxyl Polyethylene Glycol Derivative as the Drug Carrier” (PLoS ONE, 2014):
# How the values were obtained:
# [1] = Pharmacokinetics study after i.v. injection in rats; type: in vivo, Wistar rats
# Method: Male Wistar rats were purchased from The laboratory Animal Center of Sichuan University. 12 Wistar rats (body weight: 200 g±20 g) were divided into two groups randomly (n = 6). […] The blood samples were collected into heparinized centrifuge tubes at predetermined intervals (see Table S2 in file SI) by retro-orbital puncture, and the plasma was separated by centrifugation. Each plasma sample of the test groups was divided into two portions. They were treated as hydrolyzed and unhydrolyzed as described in the “In vitro drug release” section. The two portions of the samples were analyzed by HPLC to determine the plasma concentrations of released 5-FA and total 5-FA of the conjugate whereas the plasma samples of the control group were treated as unhydrolyzed samples.
# (§1) The data of pharmacokinetics and in vivo distribution study were processed using the Drug and Statistics Software 2.0 (DAS 2.0, Shanghai, China). The statistical analysis of the samples was performed by using one-way ANOVA and Student's t-test. p-values <0.05 were considered as statistically different.
# [2] = In vivo distribution in H22 tumor-bearing mice; design: species or system Kunming mice
# Method: The tumor-bearing animal model was established by subcutaneous injection of H22 cells (1×10^7 cells/ml, in 0.2 ml saline) into the right axillary region of Kunming mice. The sizes of tumors were monitored 7 days after inoculation and the tumor volumes were calculated as described in the “Antitumor activity in tumor-bearing mice” section. The mice with tumor volumes between 0.35 cm^3 and 0.65 cm^3 were randomized into two groups (n = 30). […] The mice were exsanguinated and sacrificed by neck dislocation at predetermined time points. Tissues including heart, liver, spleen, lung, kidney, brain and tumor were collected, washed with physiological saline, weighed and homogenized with two fold concentrated physiological saline. The samples of the test group were treated as hydrolyzed samples as described in the section “In vitro drug release”, whereas those of the control group were treated as unhydrolyzed samples. All data are presented as the concentration of 5-FA.
# as §1
# Kunming mice = experiment: Safety evaluation: myelosuppression (white blood cell and blood platelet counts) after intravenous administration; conditions: i.v., same doses, n=12
# Method: All animals were fed on a light and dark cycle and allowed free access to standard chow and water. Temperature and relative humidity were kept at 25°C and 50%, respectively. After experiment, mice were sacrificed by neck dislocation, and all efforts were made to minimize suffering. […] The control group was given physiological saline (0.009 g/ml). Zero point one mL blood samples were collected at prearranged time intervals (one day before injection and 1, 4, 7, and 10 days post injection).
# [3] = male, Wistar, rat, plasma, iv, 20 mg/kg
# [4] = rats, i.v., 20 mg/kg 5-FA or 189 mg/kg 5-FA-PAE
structure (smiles),measurement,setting,value
"O=C(O)Cn1cc(F)c(=O)[nH]c1=O [5-FA, 5-fluorouracil-1-acetic acid]",AUC(0-inf),[1]; [3],21600 ± 4470 ng·h/mL
same,AUC(0-t),[1]; [3],21400 ± 4360 ng·h/mL
same,Cmax,[1]; [3],74.9 ± 10.2 µg/mL
same,Tmax,[1]; [3],1 min
same,MRT last,"[1]; male, Wistar, rat, plasma, iv, 20 mg/kg, read-out: MRT 0-t",40.7 ± 8.52 min
same,MRT inf,"[1]; male, Wistar, rat, plasma, iv, 20 mg/kg, read-out: MRT 0-∞",47.7 ± 14.4 min
same,Vd,"[1]; male, Wistar, rat, plasma, iv, 20 mg/kg, read-out: V (apparent volume of distribution)",2.11 ± 0.62 L/kg
same,half-life,"[1]; male, Wistar, rat, plasma, iv, 20 mg/kg, read-out: t1/2 (elimination half life) (converted)",92.3 ± 25.1 min
same,concentration at 1 min,"[1]; male, Wistar, rat, plasma, iv, rats, i.v. 20 mg/kg 5-FA, 1 min",79.9 ± 10.2 µg/mL
same,concentration at 5 min,"[1]; male, Wistar, rat, plasma, iv, rats, i.v. 20 mg/kg 5-FA, 5 min",79.9 ± 2.86 µg/mL
same,concentration at 10 min,"[1]; male, Wistar, rat, plasma, iv, rats, i.v. 20 mg/kg 5-FA, 10 min",79.9 ± 3.52 µg/mL
same,concentration at 15 min,"[1]; male, Wistar, rat, plasma, iv, rats, i.v. 20 mg/kg 5-FA, 15 min",79.9 ± 5.07 µg/mL
same,concentration at 30 min,"[1]; male, Wistar, rat, plasma, iv, rats, i.v. 20 mg/kg 5-FA, 30 min",79.9 ± 2.8 µg/mL
same,concentration at 1 h,"[1]; male, Wistar, rat, plasma, iv, rats, i.v. 20 mg/kg 5-FA, 1 h",79.9 ± 0.986 µg/mL
same,concentration at 2 h,"[1]; male, Wistar, rat, plasma, iv, rats, i.v. 20 mg/kg 5-FA, 2 h",79.9 ± 0.814 µg/mL
same,time of complete removal from the blood circulation after administration,"[1]; rats, i.v.",6∼8 h
same,"Plasma concentration, 5-FA","[1]; rats, i.v. 20 mg/kg 5-FA, 10 h",-
same,"Plasma concentration, 5-FA","[1]; rats, i.v. 20 mg/kg 5-FA, 24 h",-
same,Cl (clearance),[1]; [4],0.967 ± 0.259 mL/g/h
same,VRT 0-t,[1]; [4],1.519±0.326 h^2
same,VRT 0-∞,[1]; [4],2.703±1.558 h^2
same,concentration in tumor over time,"[2]; H22 tumor-bearing mice, i.v. 20 mg/kg 5-FA",undetectable after 6 h
same,concentration at 15 min,"[2]; Kunming, mouse, tumor, iv, 20 mg/kg",4860 ± 1620 ng/g
same,Kp at 4 h,"[2]; Kunming, mouse, tumor/plasma, iv, 20 mg/kg, H22 tumor-bearing mice, i.v., 4 h after injection, read-out: ratio of tumor/plasma concentration",1.99
same,number of blood platelets,Kunming mice; 1 day after injection,945 ± 139 ×10^9/L
same,number of blood platelets,Kunming mice; 4 days after injection,781 ± 250 ×10^9/L
same,number of white blood cells,Kunming mice; 4 days after injection,10.32±5.71 ×10^9/L
same,number of blood platelets,Kunming mice; 7 days after injection,822 ± 198 ×10^9/L
same,number of white blood cells,Kunming mice; 7 days after injection,10.24±4.50 ×10^9/L
same,number of blood platelets,Kunming mice; 10 days after injection,860 ± 188 ×10^9/L
same,number of white blood cells,Kunming mice; 10 days after injection,11.55±3.62 ×10^9/L
"O=c1[nH]cc(F)c(=O)[nH]1 [5-Fu, 5-fluorouracil]",number of blood platelets,Kunming mice; 1 day after injection,792 ± 122 ×10^9/L
same,number of blood platelets,Kunming mice; 4 days after injection,819 ± 211 ×10^9/L
same,number of white blood cells,Kunming mice; 4 days after injection,6.84±5.76 ×10^9/L
same,number of blood platelets,Kunming mice; 7 days after injection,858 ± 254 ×10^9/L
same,number of white blood cells,Kunming mice; 7 days after injection,7.34±2.82 ×10^9/L
same,number of blood platelets,Kunming mice; 10 days after injection,863 ± 382 ×10^9/L
same,number of white blood cells,Kunming mice; 10 days after injection,8.59±2.39 ×10^9/L
